From US7238524B2, “Prostate cancer cell lines” (Board of Regents of the University of Nebraska, priority 2001, dated 2007)

Columns and labels:
Type in all cases: cell-based, human
NSE [1] = experiment: Induction of NE transdifferentiation (NSE expression, western blot) in LNCaP cells cultured in steroid-reduced condition; settings: androgen-responsive LNCaP cells in steroid-reduced condition, FIG. 7C
Excerpt: (§1) FIGS. 7A-7C show three western blots. FIG. 7A is a western blot showing levels of MEK and phosphorylated MEK in LNCaP cells and three NE-like subclone cells, NE-1-3, NE-1-8 and NE-1-9. FIG. 7B is a western blot showing inhibition of ERK activation levels in the presence of the MEK inhibitor, PD098059, in NE-1-3 subclone cells. FIG. 7C is a western blot showing inhibition of NSE expression levels mediated by the MEK inhibitor, PD098059, in steroid-reduced medium.
(§2) To test the causal relationship of ERK/MAPK activation with NE-like transdifferentiation, MEKs, up-stream regulators of ERK/MAPK kinases, were examined to determine if they are also activated in the NE-like subclone cells.

ERK/MAPK = experiment: Western blot of ERK/MAPK activation in NE-like subclone cells with MEK inhibitor; settings: NE-like subclone cells (NE-1-3), FIG. 7B
Excerpt: as §1, §2

LNCaP cells = experiment: Effect of butyrate on LNCaP cell growth; settings: butyrate treatment, FIG. 10A
Method: (§3) FIGS. 10A and 10B show a pair of graphs illustrating the effects of sodium butyrate on LNCaP cell population (FIG. 10A) accompanied by a western blot showing resolution of NSE and RPTPα expression levels in LNCaP cells in the presence of increasing concentrations of sodium butyrate (FIG. 10B).
(§4) The regulation of RPTPα expression was then investigated in prostate cancer cells. The regulation of RPTPα expression was measured using butyrate since this pharmacological reagent induces cellular differentiation and has been utilized in the clinical trials for advanced prostate cancer therapy (29). […] This 160 kDa protein may represent an isoform of RPTPα, due to post-translational modifications (27,28).

RPTPα = experiment: Western blot of RPTPα expression in butyrate-treated LNCaP cells; settings: increasing concentrations of sodium butyrate, FIG. 10B
Method: as §3, §4

NSE [2] = experiment: Western blot of NSE expression in butyrate-treated LNCaP cells; settings: increasing concentrations of sodium butyrate, FIG. 10B
Method: as §3, §4

Row | Structure (SMILES) | induction of NE transdifferentiation (NSE expression) (NSE [1]) | activation of ERK/MAPK (phosphorylated ERK) (ERK/MAPK) | growth of LNCaP cells (LNCaP cells) | RPTPα protein expression (RPTPα) | NSE protein expression (NSE [2])
1 | COc1cccc(-c2cc(=O)c3ccccc3o2)c1N [PD098059] | abolished | effectively inhibited | – | – | –
2 | CCCC(=O)[O-].[Na+] [Butyrate, sodium butyrate] | – | – | growth suppression | elevated levels | elevated levels
